Results on one molecule are retold here after publication doi:10.1101/277434v2 (biorxiv, 2024).

In this experiment the target is IRAK4 (Homo sapiens, UniProt Q9NWZ3). Nature of the experiment: biochemical.
Chain of IRAK4 (Q9NWZ3 whole entry): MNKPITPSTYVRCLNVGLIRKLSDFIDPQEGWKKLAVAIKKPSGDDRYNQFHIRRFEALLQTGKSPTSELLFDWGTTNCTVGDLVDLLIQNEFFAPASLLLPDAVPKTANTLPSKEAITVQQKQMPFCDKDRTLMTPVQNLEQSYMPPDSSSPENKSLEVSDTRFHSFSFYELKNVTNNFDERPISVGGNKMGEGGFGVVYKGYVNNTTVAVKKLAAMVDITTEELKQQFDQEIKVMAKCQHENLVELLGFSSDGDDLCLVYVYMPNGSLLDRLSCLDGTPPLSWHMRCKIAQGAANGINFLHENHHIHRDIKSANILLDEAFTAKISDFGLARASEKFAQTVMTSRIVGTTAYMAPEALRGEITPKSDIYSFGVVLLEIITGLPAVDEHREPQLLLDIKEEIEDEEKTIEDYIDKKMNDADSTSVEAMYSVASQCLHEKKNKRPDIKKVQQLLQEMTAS

`CN(C)C` [TMA]: the IC50 (usually the midpoint of a concentration-inhibition curve) was determined as 3.4 µM. That is a single-digit micromolar value.
